Where a SMILES comes first, the peptide text is derived from it. Bridges are numbered along the chain shown (N, C = ends).
Tests used:
Format in all cases: cell-based
WM164 cells [1] = experiment: Cytotoxicity, resazurin assay
HT144 cells [2] = experiment: Cytotoxicity, resazurin assay; details: for IC50: Homo sapiens
WM164 cells [3] = experiment: Real-time cell analysis, xCELLigence impedance
HT144 cells [4] = experiment: Real-time cell analysis, xCELLigence impedance
WM164 cells [5] = experiment: Co-treatment of dabrafenib with peptide, resazurin assay; details: drug-naïve WM164, drug (50 nM) or peptide (at IC50) added alone, 72 h
WM164 cells [6] = experiment: Lipidome analysis, shotgun tandem MS of lipid extracts
WM164 cells [7] = experiment: Microscopy during long-term treatment
HT144 cells [8] = experiment: Microscopy during long-term treatment
HT144 cells [9] = experiment: Lipidome analysis, shotgun tandem MS of lipid extracts
WM164 cells [10] = experiment: Cell surface charge, zeta potential; details: WM164 PDRCs (105 days with dabrafenib), mean ± SEM, n=3
HT144 cells [11] = experiment: Cell surface charge, zeta potential; details: mean ± SEM, n=3
[12] = WM164, 15-30 days of dabrafenib
[13] = WM164, dabrafenib 30 days vs untreated
[14] = HT144, dabrafenib 30 days vs untreated

## CC[C@H](C)[C@@H]1NC(=O)CNC(=O)[C@H](CCCNC(=N)N)NC(=O)[C@H](Cc2ccc(O)cc2)NC(=O)[C@@H]2CSSC[C@H](NC1=O)C(=O)N[C@@H](Cc1ccc(O)cc1)C(=O)N[C@@H](CCCNC(=N)N)C(=O)N[C@@H](CCCNC(=N)N)C(=O)N[C@H]1CSSC[C@H](NC(=O)[C@H](Cc3c[nH]c4ccccc34)NC(=O)[C@H](CCCCN)NC(=O)CNC(=O)[C@H](CCCNC(=N)N)NC1=O)C(=O)N[C@@H](Cc1ccccc1)C(=O)N[C@@H](CCCNC(=N)N)C(=O)N[C@@H](C(C)C)C(=O)N2 [cTI, cyclic tachyplesin I] (cyclo(CFRVCYRGICYRRCRGKW); disulfide 1-14, 5-10)
WM164 cells [1]; 5 x10^3 WM164 cells seeded for 24 h, 3 µM peptide, resazurin
  cell death: 50%
WM164 cells [1]; WM164, cTI 0.5 to 3 µM over 100 days
  development of resistance: did not develop resistance
HT144 cells [2]; HT144, cTI 0.5 to 3 µM over 100 days
  development of resistance: did not develop resistance
WM164 cells [3]; 5 µM, 24 h
  reduction in impedance signal: ~50%
WM164 cells [3]; 10 µM
  time to drop in the impedance to ∼0: 2 to 3 h
WM164 cells [3]; 10^4 WM164 cells seeded for 24 h, 5 µM
  cell proliferation: ~50%
HT144 cells [4]; 5 µM, 24 h
  reduction in impedance signal: ~50%
HT144 cells [4]; 10 µM
  time to drop in the impedance to ∼0: 2 to 3 h
WM164 cells [5]
  cell death: ~ 50%
WM164 cells [6]; WM164, 1µM cTI_15d
  PC 30:0, Mean nmol/M cells: 0.78 nmol/M cells
  PC 30:1, Mean nmol/M cells: 0.42 nmol/M cells
  PC 32:0, Mean nmol/M cells: 0.50 nmol/M cells
  PC 32:1, Mean nmol/M cells: 3.15 nmol/M cells
  PC 32:2, Mean nmol/M cells: 0.38 nmol/M cells
  PC 34:1, Mean nmol/M cells: 5.61 nmol/M cells
  PC 34:2, Mean nmol/M cells: 2.35 nmol/M cells
  PC 36:1, Mean nmol/M cells: 0.86 nmol/M cells
  PC 36:2, Mean nmol/M cells: 3.56 nmol/M cells
  PE 32:1, Mean nmol/M cells: 0.21 nmol/M cells
  PE 34:1, Mean nmol/M cells: 0.89 nmol/M cells
  PE 34:2, Mean nmol/M cells: 0.71 nmol/M cells
  PE 36:1, Mean nmol/M cells: 0.75 nmol/M cells
  PE 36:2, Mean nmol/M cells: 1.48 nmol/M cells
  PE 36:3, Mean nmol/M cells: 0.19 nmol/M cells
  PE 38:4, Mean nmol/M cells: 0.27 nmol/M cells
  PE 38:5, Mean nmol/M cells: 0.26 nmol/M cells
  PE 40:6, Mean nmol/M cells: 0.16 nmol/M cells
  PI 34:1, Mean nmol/M cells: 0.42 nmol/M cells
  PI 34:2, Mean nmol/M cells: 0.29 nmol/M cells
  PI 36:1, Mean nmol/M cells: 1.12 nmol/M cells
  PI 36:2, Mean nmol/M cells: 1.12 nmol/M cells
  PI 38:2, Mean nmol/M cells: 0.19 nmol/M cells
  PI 38:3, Mean nmol/M cells: 0.34 nmol/M cells
  PI 38:4, Mean nmol/M cells: 0.64 nmol/M cells
  PI 38:5, Mean nmol/M cells: 0.22 nmol/M cells
WM164 cells [6]; WM164, 2µM cTI_60d
  PC 30:0, Mean nmol/M cells: 0.51 nmol/M cells
  PC 30:1, Mean nmol/M cells: 0.27 nmol/M cells
  PC 32:0, Mean nmol/M cells: 0.34 nmol/M cells
  PC 32:1, Mean nmol/M cells: 1.93 nmol/M cells
  PC 32:2, Mean nmol/M cells: 0.26 nmol/M cells
  PC 34:1, Mean nmol/M cells: 4.19 nmol/M cells
  PC 34:2, Mean nmol/M cells: 1.64 nmol/M cells
  PC 36:1, Mean nmol/M cells: 0.82 nmol/M cells
  PC 36:2, Mean nmol/M cells: 2.77 nmol/M cells
  PE 32:1, Mean nmol/M cells: 0.16 nmol/M cells
  PE 34:1, Mean nmol/M cells: 0.68 nmol/M cells
  PE 34:2, Mean nmol/M cells: 0.71 nmol/M cells
  PE 36:1, Mean nmol/M cells: 0.78 nmol/M cells
  PE 36:2, Mean nmol/M cells: 1.83 nmol/M cells
  PE 36:3, Mean nmol/M cells: 0.19 nmol/M cells
  PE 38:4, Mean nmol/M cells: 0.28 nmol/M cells
  PE 38:5, Mean nmol/M cells: 0.27 nmol/M cells
  PE 40:6, Mean nmol/M cells: 0.17 nmol/M cells
  PI 34:1, Mean nmol/M cells: 0.25 nmol/M cells
  PI 34:2, Mean nmol/M cells: 0.17 nmol/M cells
  PI 36:1, Mean nmol/M cells: 0.80 nmol/M cells
  PI 36:2, Mean nmol/M cells: 0.73 nmol/M cells
  PI 38:2, Mean nmol/M cells: 0.18 nmol/M cells
  PI 38:3, Mean nmol/M cells: 0.26 nmol/M cells
  PI 38:4, Mean nmol/M cells: 0.46 nmol/M cells
  PI 38:5, Mean nmol/M cells: 0.12 nmol/M cells
WM164 cells [6]; WM164, 3µM cTI_100d
  PC 30:0, Mean nmol/M cells: 0.74 nmol/M cells
  PC 30:1, Mean nmol/M cells: 0.44 nmol/M cells
  PC 32:0, Mean nmol/M cells: 0.42 nmol/M cells
  PC 32:1, Mean nmol/M cells: 3.17 nmol/M cells
  PC 32:2, Mean nmol/M cells: 0.42 nmol/M cells
  PC 34:1, Mean nmol/M cells: 5.27 nmol/M cells
  PC 34:2, Mean nmol/M cells: 2.18 nmol/M cells
  PC 36:1, Mean nmol/M cells: 0.90 nmol/M cells
  PC 36:2, Mean nmol/M cells: 2.89 nmol/M cells
  PE 32:1, Mean nmol/M cells: 0.26 nmol/M cells
  PE 34:1, Mean nmol/M cells: 1.09 nmol/M cells
  PE 34:2, Mean nmol/M cells: 1.08 nmol/M cells
  PE 36:1, Mean nmol/M cells: 1.00 nmol/M cells
  PE 36:2, Mean nmol/M cells: 2.05 nmol/M cells
  PE 36:3, Mean nmol/M cells: 0.26 nmol/M cells
  PE 38:4, Mean nmol/M cells: 0.33 nmol/M cells
  PE 38:5, Mean nmol/M cells: 0.35 nmol/M cells
  PE 40:6, Mean nmol/M cells: 0.19 nmol/M cells
  PI 34:1, Mean nmol/M cells: 0.48 nmol/M cells
  PI 34:2, Mean nmol/M cells: 0.30 nmol/M cells
  PI 36:1, Mean nmol/M cells: 1.26 nmol/M cells
  PI 36:2, Mean nmol/M cells: 1.19 nmol/M cells
  PI 38:2, Mean nmol/M cells: 0.23 nmol/M cells
  PI 38:3, Mean nmol/M cells: 0.35 nmol/M cells
  PI 38:4, Mean nmol/M cells: 0.61 nmol/M cells
  PI 38:5, Mean nmol/M cells: 0.22 nmol/M cells
WM164 cells [7]; WM164, after 2 µM cTI for one week
  cell morphology: more elongated and less dendritic
HT144 cells [8]; HT144, treatment with cTI for 100 days
  cell morphology: remained unchanged

## CC(C)(C)c1nc(-c2cccc(NS(=O)(=O)c3c(F)cccc3F)c2F)c(-c2ccnc(N)n2)s1 [dabrafenib, reference compound]
WM164 cells [1]; Homo sapiens, WM164, Parental WM164 cells
  IC50: 44 nM
HT144 cells [2]; HT-144, 72 h, HT144 PDRC (100 nM), resazurin three days after drug
  IC50: > 1000 nM
HT144 cells [2]; HT-144, Parental HT144 cells
  IC50: 22 nM
HT144 cells [2]; PDR HT144 cells, at 1µM
  toxicity: ~10%
WM164 cells [5]
  cell death: ~ 50%
WM164 cells [6]; WM164, 100 nM dabrafenib 30 days (untreated 3)
  SM proportion: 11 mol%
WM164 cells [6]; [12]
  fold increase of PI 38:4: 3 fold
  fold increase of SM 36:1: 3 fold
WM164 cells [6]; WM164, 15-30 days of dabrafenib (before 8)
  SM 36:1 abundance: 26 mol%
WM164 cells [6]; WM164, 15-30 days of dabrafenib (before 18)
  PI 38:4 abundance: 55 mol%
WM164 cells [6]; WM164, dabrafenib 30 days (untreated 19)
  negatively charged lipids (PS+PI) proportion: 23 mol%
WM164 cells [6]; WM164, dabrafenib 30 days (untreated 78)
  zwitterionic PE and PC proportion: 66 mol%
WM164 cells [6]; [13]
  fold decrease in PE and PC: 0.8 fold
  fold increase in PS+PI: 1.2 fold
  fold increase in SM: 3.7 fold
HT144 cells [9]; HT144, dabrafenib 30 days (untreated 5)
  SM proportion: 9 mol%
HT144 cells [9]; HT144, dabrafenib 30 days (untreated 15)
  PE proportion: 20 mol%
HT144 cells [9]; HT144, dabrafenib 30 days (untreated 59)
  PC proportion: 51 mol%
HT144 cells [9]; [14]
  fold decrease in PC: 0.9 fold
  fold increase in PE: 1.3 fold
  fold increase in SM: 1.8 fold
WM164 cells [10]
  surface charge, zeta potential: −20.18 ± 0.95 mV
HT144 cells [11]; HT144 DTPs (30 days with dabrafenib)
  surface charge, zeta potential: −15.94 ± 0.59 mV
HT144 cells [11]; HT144 PDRCs (105 days with dabrafenib)
  surface charge, zeta potential: −17.7 ± 0.30 mV
WM164 cells [7]; WM164, 100 nM dabrafenib
  time to death of drug-naïve cells: ≤ 48 h
HT144 cells [8]; HT144, 100 nM dabrafenib
  time to death of drug-naïve cells: ≤ 48 h

Source: doi:10.1101/2022.10.27.513961v1 (bioRxiv, 2022)
